Like-named read-outs stand apart in the source and are kept apart here.
Columns and labels:
Format in all cases: biochemical
tyrosinase = experiment: Tyrosinase inhibitory activity experiment (L-tyrosine, 405 nm); settings: 96-well plate, PBS, L-tyrosine substrate, 37 °C 30 min; kojic acid positive control
Procedure: In a 96-well plate, group A was added 80 μL of 0.1 mol/L PBS, 50 μL of solvent (solvent used to dissolve the sample: DMSO) and 50 μL of tyrosinase as a blank group (n = 2); group B was added 130 μL of 0.1 mol/L PBS and 50 μL of solvent as blank background group (n = 2); group C was added with 80 μL of 0.1 mol/L PBS, 50 μL of the sample (standard solution dissolved in DMSO to the concentration of 1.0 mg/mL) and 50 μL of tyrosinase as the experimental group (n = 2); group D were added 130 μL of 0.1 mol/L PBS and 50 μL of the sample as experimental background group (n = 2); finally, 20 μL of substrate (L-tyrosine) was added to each well to trigger the reaction, and the 96-well plate was further incubated at 37 °C.

acetylcholinesterase = acetylcholinesterase (Homo sapiens, UniProt P22303); experiment: biochemical
Chain of acetylcholinesterase (P22303 32-614, species assumed): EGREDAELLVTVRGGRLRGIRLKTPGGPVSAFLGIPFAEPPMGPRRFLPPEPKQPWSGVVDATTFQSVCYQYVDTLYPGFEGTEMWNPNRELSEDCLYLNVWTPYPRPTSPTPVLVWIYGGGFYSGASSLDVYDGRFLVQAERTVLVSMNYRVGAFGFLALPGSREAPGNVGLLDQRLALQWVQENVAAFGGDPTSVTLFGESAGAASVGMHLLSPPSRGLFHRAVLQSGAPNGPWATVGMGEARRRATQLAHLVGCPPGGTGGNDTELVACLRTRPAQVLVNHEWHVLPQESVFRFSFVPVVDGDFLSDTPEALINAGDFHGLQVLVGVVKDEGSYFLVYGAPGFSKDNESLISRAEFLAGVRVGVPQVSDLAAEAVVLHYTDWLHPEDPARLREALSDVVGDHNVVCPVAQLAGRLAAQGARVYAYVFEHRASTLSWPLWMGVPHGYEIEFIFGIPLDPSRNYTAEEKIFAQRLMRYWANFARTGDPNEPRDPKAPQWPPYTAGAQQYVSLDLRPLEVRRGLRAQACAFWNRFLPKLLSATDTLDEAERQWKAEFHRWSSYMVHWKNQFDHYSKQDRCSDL

α-glucosidase = experiment: α-Glucosidase inhibitory activity experiment (PNPG, 405 nm); settings: 96-well plate, PBS pH 7.4, 37 °C, PNPG substrate; acarbose positive control
Procedure: In a 96-well plate, group A was added 20 μL of 0.1 mol/L PBS (phosphate buffered saline (pH 7.4)), 20 μL of the sample (standard solution dissolved in DMSO to the concentration of 1.0 mg/mL) and 20 μL of α-glucosidase as a sample group (n = 3); Group B was added 40 μL of 0.1 mol/L PBS and 20 μL of the sample as the control group (n = 3); Group C was added 40 μL 0.1 mol/L PBS and 20 μL α-glucosidase as blank group (n = 3); after incubation for 15 min at 37 °C, then 2.5 mmol/L PNPG glycoside was added to each well and incubated at 37 °C. The reaction was stopped by adding 80 μL of a 0.2 mol/L Na2CO3 solution to each well after 15 min.

[1] = 96-well plate, PBS, ACTI and DTNB, 37 °C 20 min, huperzine A positive control, read-out: Acetylcholinesterase inhibitory activity IC50 (converted)

Compound	Tyrosinase inhibitory activity IC50 (tyrosinase) [µg/mL]	IC50 (acetylcholinesterase) [µM]	α-glucosidase activity inhibition IC50 (α-glucosidase) [µg/mL]	IC50 (acetylcholinesterase; [1]) [µM]
O=c1cc(-c2ccc(O)c(O)c2)oc2cc(O)cc(O)c12 [Compound 1, luteolin]	1643.11	1660	–	–
O=c1c(O)c(-c2ccc(O)cc2)oc2cc(O)cc(O)c12 [Compound 3, kaempferol]	–	1760	–	–
C[C@@H]1O[C@@H](OC[C@H]2O[C@@H](Oc3c(-c4ccc(O)c(O)c4)oc4cc(O)cc(O)c4c3=O)[C@H](O)[C@@H](O)[C@@H]2O)[C@H](O)[C@H](O)[C@H]1O [Compound 7, rutin]	–	806	–	–
CC(C)[C@@H](C)/C=C/[C@@H](C)[C@H]1CC[C@@H]2[C@]1(C)CC[C@H]1[C@]23C=C[C@]2(C[C@@H](O)CC[C@]12C)OO3 [Compound 8, ergosterol peroxide]	202.37	–	452.50	1170
CC#CC#CC#CC#CC#CC(CO)O[C@@H]1O[C@H](CO)[C@@H](O)[C@H](O)[C@H]1O (stereo partly drawn) [Compound 10, 2-β-D-glucopyranosyloxy-1-hydroxytrideca-3,5,7,9,11-pentayne]	–	–	492.11	1450
COC1OC(CNC2C(OC)OC(CO)C(O)C2O)C(O)C(O)C1O [Compound 11, α-D-Alt-p-OMe (N2-6) α-D-Gle-p-OMe]	302.42	–	318.44	1400
OCC1OC(OC2C(CO)OC(OC3C(CO)OC(OC4(CO)OC(CO)C(O)C4O)C(O)C3O)C(O)C2O)C(O)C(O)C1O [Compound 12, O-α-D-glucopyranosyl-(1→4)-α-D-glucopyranosyl-(1→4)-α-D-glucopyranosyl-(1→2)-β-D-fructofuranoside]	1750.08	–	444.88	761
